Reference: ChEMBL document CHEMBL1649532, “Trypanocidal activity of 8-methyl-5'-{[(Z)-4-aminobut-2-enyl]-(methylamino)}adenosine (Genz-644131), an adenosylmethionine decarboxylase inhibitor” (Antimicrob Agents Chemother, 2009)
In brackets after ≈: the same amount, converted by molar mass. Activity calls are given as the source filed them. The calls are words filed in the database; no cut-off is given here.

Tests used:
[1] = tested on: Trypanosoma brucei brucei; experiment: Trypanocidal activity against Trypanosoma brucei brucei EATRO infected in mouse assessed as mean survival time at 5 mg/kg, ip BID for 4 days; type: functional; settings: route intraperitoneal
[2] = tested on: Trypanosoma brucei rhodesiense; experiment: Trypanocidal activity against Trypanosoma brucei rhodesiense KETRI1992 infected in mouse assessed as cure rate at 25 mg/kg, ip BID administered 24 hrs postinfection; type: functional; settings: route intraperitoneal
[3] = tested on: Trypanosoma brucei brucei; experiment: Trypanocidal activity against Trypanosoma brucei brucei 667 infected in mouse assessed as average day of relapse of trypanosomal infection at 50 mg/kg, ip BID for 14 days; type: functional; settings: route intraperitoneal
[4] = tested on: Trypanosoma brucei brucei; experiment: Trypanocidal activity against Trypanosoma brucei brucei EATRO infected in mouse assessed as mean survival time at 2 mg/kg, ip BID for 4 days; type: functional; settings: route intraperitoneal
[5] = tested on: Trypanosoma brucei brucei; experiment: Trypanocidal activity against Trypanosoma brucei brucei 667 infected in mouse assessed as average day of relapse of trypanosomal infection at 100 mg/kg, ip BID for 14 days; type: functional; settings: route intraperitoneal
[6] = tested on: Trypanosoma brucei rhodesiense; experiment: Trypanocidal activity against Trypanosoma brucei rhodesiense KETRI1992 infected in mouse assessed as protection against trypanosomal infection at 10 mg/kg, ip QD administered 24 hrs postinfection; type: functional, organism-based; set-up: dose 10 mg/kg
[7] = tested on: Trypanosoma brucei brucei; experiment: Trypanocidal activity against Trypanosoma brucei brucei 667 infected in mouse assessed as average day of relapse of trypanosomal infection at 10 mg/kg, ip BID for 21 days; type: functional; settings: route intraperitoneal
[8] = tested on: Trypanosoma brucei rhodesiense; experiment: Trypanocidal activity against Trypanosoma brucei rhodesiense KETRI2538 after 48 hrs; type: functional, organism-based; settings: KETRI2538, 48 h
[9] = tested on: Trypanosoma brucei brucei; experiment: Trypanocidal activity against Trypanosoma brucei brucei EATRO infected in mouse assessed as mean survival time at 50 mg/kg, ip BID for 4 days; type: functional; settings: route intraperitoneal
[10] = tested on: Trypanosoma brucei brucei; experiment: Trypanocidal activity against Trypanosoma brucei brucei EATRO infected in mouse assessed as mean survival time at 1 mg/kg, ip QD for 4 days; type: functional; settings: route intraperitoneal
[11] = tested on: Trypanosoma brucei rhodesiense; experiment: Trypanocidal activity against Trypanosoma brucei rhodesiense KETRI2002 infected in mouse assessed as protection against trypanosomal infection at 10 mg/kg, ip QD administered 24 hrs postinfection; type: functional, organism-based; set-up: dose 10 mg/kg
[12] = tested on: Trypanosoma brucei rhodesiense; experiment: Trypanocidal activity against Trypanosoma brucei rhodesiense KETRI243 infected in mouse assessed as average survival time at 10 mg/kg, ip QD administered 24 hrs postinfection; type: functional; settings: route intraperitoneal
[13] = tested on: Trypanosoma brucei rhodesiense; experiment: Trypanocidal activity against Trypanosoma brucei rhodesiense KETRI1992 infected in mouse assessed as protection against trypanosomal infection at 10 mg/kg, ip BID administered 24 hrs postinfection; type: functional, organism-based; set-up: dose 10 mg/kg
[14] = tested on: Trypanosoma brucei brucei; experiment: Trypanocidal activity against Trypanosoma brucei brucei 667 infected in mouse assessed as average day of relapse of trypanosomal infection at 10 mg/kg, ip BID for 4 days; type: functional; settings: route intraperitoneal
[15] = tested on: Trypanosoma brucei brucei; experiment: Trypanocidal activity against Trypanosoma brucei brucei EATRO infected in mouse assessed as protection against trypanosomal infection at 25 mg/kg, ip BID for 4 days; type: functional, organism-based; set-up: dose 25 mg/kg
[16] = tested on: Trypanosoma brucei brucei; experiment: Trypanocidal activity against Trypanosoma brucei brucei 667 infected in mouse assessed as average day of relapse of trypanosomal infection at 100 mg/kg, ip BID for 7 days; type: functional; settings: route intraperitoneal
[17] = tested on: Trypanosoma brucei brucei; experiment: Trypanocidal activity against Trypanosoma brucei brucei 667 infected in mouse assessed as average day of relapse of trypanosomal infection at 50 mg/kg, ip BID for 7 days; type: functional; settings: route intraperitoneal
[18] = tested on: Trypanosoma brucei brucei; experiment: Trypanocidal activity against Trypanosoma brucei brucei EATRO infected in mouse assessed as mean survival time at 2.5 mg/kg, ip BID for 4 days; type: functional; settings: route intraperitoneal
[19] = tested on: Trypanosoma brucei rhodesiense; experiment: Trypanocidal activity against Trypanosoma brucei rhodesiense KETRI243 infected in mouse assessed as protection against trypanosomal infection at 10 mg/kg, ip QD administered 24 hrs postinfection; type: functional, organism-based; set-up: dose 10 mg/kg
[20] = tested on: Trypanosoma brucei rhodesiense; experiment: Trypanocidal activity against Trypanosoma brucei rhodesiense KETRI243 infected in mouse assessed as average survival time at 50 mg/kg, ip BID administered 24 hrs postinfection; type: functional; settings: route intraperitoneal
[21] = tested on: Trypanosoma brucei brucei; experiment: Trypanocidal activity against Trypanosoma brucei brucei EATRO infected in mouse assessed as protection against trypanosomal infection at 25 mg/kg, ip QD for 4 days; type: functional, organism-based; set-up: dose 25 mg/kg
[22] = tested on: Trypanosoma brucei brucei; experiment: Trypanocidal activity against Trypanosoma brucei brucei EATRO infected in mouse assessed as mean survival time at 10 mg/kg, ip QD for 4 days; type: functional; settings: route intraperitoneal
[23] = tested on: Trypanosoma brucei rhodesiense; experiment: Trypanocidal activity against Trypanosoma brucei rhodesiense KETRI1992 infected in mouse assessed as average survival time at 10 mg/kg, ip QD administered 24 hrs postinfection; type: functional; settings: route intraperitoneal
[24] = tested on: Trypanosoma brucei brucei; experiment: Trypanocidal activity against Trypanosoma brucei brucei EATRO infected in mouse assessed as protection against trypanosomal infection at 50 mg/kg, ip QD for 4 days; type: functional, organism-based; set-up: dose 50 mg/kg
[25] = tested on: Trypanosoma brucei brucei; experiment: Trypanocidal activity against Trypanosoma brucei brucei EATRO infected in mouse assessed as mean survival time at 25 mg/kg, ip QD for 4 days; type: functional; settings: route intraperitoneal
[26] = tested on: Trypanosoma brucei brucei; experiment: Trypanocidal activity against Trypanosoma brucei brucei EATRO infected in mouse assessed as mean survival time at 50 mg/kg, ip QD for 4 days; type: functional; settings: route intraperitoneal
[27] = tested on: Trypanosoma brucei brucei; experiment: Trypanocidal activity against Trypanosoma brucei brucei EATRO infected in mouse assessed as mean survival time at 25 mg/kg, ip BID for 4 days; type: functional; settings: route intraperitoneal
[28] = tested on: Trypanosoma brucei brucei; experiment: Trypanocidal activity against Trypanosoma brucei brucei 667 infected in mouse assessed as average day of relapse of trypanosomal infection at 10 mg/kg, ip BID for 14 days; type: functional; settings: route intraperitoneal
[29] = tested on: Trypanosoma brucei brucei; experiment: Trypanocidal activity against Trypanosoma brucei brucei EATRO infected in mouse assessed as protection against trypanosomal infection at 50 mg/kg, ip BID for 4 days; type: functional, organism-based; set-up: dose 50 mg/kg
[30] = tested on: Trypanosoma brucei brucei; experiment: Trypanocidal activity against Trypanosoma brucei brucei EATRO infected in mouse assessed as cure rate at 1 mg/kg, ip QD for 4 days; type: functional; settings: route intraperitoneal
[31] = tested on: Trypanosoma brucei brucei; experiment: Trypanocidal activity against Trypanosoma brucei brucei EATRO infected in mouse assessed as mean survival time at 2 mg/kg, ip QD for 4 days; type: functional; settings: route intraperitoneal
[32] = tested on: Trypanosoma brucei rhodesiense; experiment: Trypanocidal activity against Trypanosoma brucei rhodesiense KETRI243 infected in mouse assessed as average survival time at 10 mg/kg, ip BID administered 24 hrs postinfection; type: functional; settings: route intraperitoneal
[33] = tested on: Trypanosoma brucei rhodesiense; experiment: Trypanocidal activity against Trypanosoma brucei rhodesiense KETRI243 infected in mouse assessed as protection against trypanosomal infection at 10 mg/kg, ip BID administered 24 hrs postinfection; type: functional, organism-based; set-up: dose 10 mg/kg
[34] = tested on: Trypanosoma brucei brucei; experiment: Trypanocidal activity against Trypanosoma brucei brucei 667 infected in mouse assessed as average day of relapse of trypanosomal infection at 25 mg/kg, ip BID for 7 days; type: functional; settings: route intraperitoneal
[35] = tested on: Trypanosoma brucei brucei; experiment: Trypanocidal activity against Trypanosoma brucei brucei EATRO infected in mouse assessed as protection against trypanosomal infection at 2 mg/kg, ip BID for 4 days; type: functional, organism-based; set-up: dose 2 mg/kg
[36] = tested on: Trypanosoma brucei rhodesiense; experiment: Trypanocidal activity against Trypanosoma brucei rhodesiense KETRI2002 infected in mouse assessed as cure rate at 10 mg/kg, ip BID administered 24 hrs postinfection; type: functional; settings: route intraperitoneal
[37] = tested on: Trypanosoma brucei brucei; experiment: Trypanocidal activity against Trypanosoma brucei brucei EATRO infected in mouse assessed as protection against trypanosomal infection at 5 mg/kg, ip BID for 4 days; type: functional, organism-based; set-up: dose 5 mg/kg
[38] = tested on: Trypanosoma brucei rhodesiense; experiment: Trypanocidal activity against Trypanosoma brucei rhodesiense KETRI2002 infected in mouse assessed as cure rate at 50 mg/kg, ip QD administered 24 hrs postinfection; type: functional; settings: route intraperitoneal
[39] = tested on: Trypanosoma brucei brucei; experiment: Trypanocidal activity against Trypanosoma brucei brucei EATRO infected in mouse assessed as protection against trypanosomal infection at 10 mg/kg, ip BID for 4 days; type: functional, organism-based; set-up: dose 10 mg/kg

## Cc1nc2c(N)ncnc2n1[C@@H]1O[C@H](CN(C)C/C=C\CN)[C@@H](O)[C@H]1O
[1]
  MST: >35 days
[2]
  Activity: 60%
[3]
  MST: 63.4 days
[4]
  MST: >35 days
[5]
  MST: 72 days
[6]
  Activity: inactive
[7]
  MST: 61.8 days
[8]
  IC50: 0.3 ng/mL (≈ 0.825 nM)
[9]
  MST: >35 days
[10]
  MST: 13.5 days
[11]
  Activity: inactive
[12]
  MST: 13.2 days
[13]
  Activity: inactive
[14]
  MST: 36 days
[15]
  Activity: Active
[16]
  MST: 68.8 days
[17]
  MST: 59 days
[18]
  MST: >35 days
[19]
  Activity: inactive
[20]
  MST: 23.3 days
[21]
  Activity: Active
[22]
  MST: >35 days
[23]
  MST: 16.6 days
[24]
  Activity: Active
[25]
  MST: >35 days
[26]
  MST: >35 days
[27]
  MST: >35 days
[28]
  MST: 59.8 days
[29]
  Activity: Active
[30]
  Activity: >50%
[31]
  MST: >35 days
[32]
  MST: 14.8 days
[33]
  Activity: inactive
[34]
  MST: 61.7 days
[35]
  Activity: Active
[36]
  Activity: 60%
[37]
  Activity: Active
[38]
  Activity: 80%
[39]
  Activity: Active
